# Reference: PMC10449621, “Engineering cellular communication between light-activated synthetic cells and bacteria” (Nature Chemical Biology, 2023)
# Several values for one entry are separate records, joined by “and”; a condition that tells them apart may be missing. Identical values can stand only once.
# What was measured:
# [1] = system: BjaRS107R (B0033|ATG) receiver cells; test: BjaR receiver cell AHSL dose-response (gfp reporter, plate reader); assay type: cell-based, E. coli XL10-Gold; conditions: for EC50: IV-HSL-activated gfp expression; for Mean normalised fluorescence / Normalised fluorescence / GFP: sheet 3d; for Normalised fluorescence / GFP: Expt1-3; for GFP: raw fluorescence ex 488/em 510 nm
# From the text: (§1) These findings are consistent with the predicted translation initiation rates of the respective sequences—translation from the BBa_B0033 RBS provides 1% of protein yield compared to the BBa_B0034 RBS, just as an CTG start codon provides 1% of the protein yield compared to an ATG start codon[30],[31]. This also offers support as to why the ON-state gfp expression level increased in variants with a tighter OFF-state; more cellular resources were available for GFP synthesis when comparatively fewer were allocated to BjaR synthesis. To elucidate the impact of the S107R variant on gene circuit performance, we introduced the S107R variant alone back into the bjaRWT gene, in the context of the BBa_B0033 RBS background.
# (§2) In addition to quantifying how these BjaR receiver cells responded to their branched, cognate ligand, we also sought to determine whether the BjaR receiver cells could be activated by structurally dissimilar AHSLs involved in the LuxI/R, EsaI/R, LasI/R and RhlI/R QS systems previously used in synthetic cell communication[5],[7],[8]. To this end, we measured the fluorescence of BjaR receiver cells grown in the presence of their activators, 3OC6-HSL, 3OC12-HSL and C4-HSL, respectively (Supplementary Fig. 13a).
# (§3) The BjaR reporter plasmids were retransformed into E. coli XL10-Gold cells for each experiment. A single colony was used to inoculate 5 ml LB + Amp media and incubated at 37 °C, 225 r.p.m. overnight. Overnight cultures were diluted 1/250 or 1/500 in 5 ml M9 minimal media + Amp and incubated at 37 °C, 225 r.p.m. for 3 h and 45 min (until OD600 = ~0.075). Cultures were diluted down to OD600 = 0.05 with M9 minimal media + Amp, and 200 µl was added to wells of a 96-well plate containing 1 µl IV-HSL dissolved in DMSO or 1 µl BjaI CFPS reactions (IV-HSL concentrations obtained from serial dilution from 63.2 µM to 632 pM; final DMSO concentration = 0.5%). Cells were incubated at 37 °C, 800 r.p.m., in a thermomixer with a heated lid for 4 h. Fluorescence and OD600 were measured in a Tecan M1000 infinite plate reader (excitation, 488 nm; emission, 510 nm; bandwidth, 5 nm; gain, 101 and z position, 21,311 µm). The dose–response curves were fitted to the function indicated by Eq. (1), where a = maximal fluorescence output, b = basal fluorescence output, X = concentration of AHSL, GFP = fluorescence at the given condition, EC50 = AHSL at 50% maximal fluorescence output and h = hill coefficient. EC50 and h were derived using the nonlinear regression model based on Eq. (1), in MATLAB. A summary of the dose–response data is available in Supplementary Table 1.1 GFP=b+a−b/1+10^logEC50−X×h
# [2] = system: BjaRWT (B0033|ATG) receiver cells; test: as above; assay type: cell-based, E. coli XL10-Gold
# From the text: as §1, §2, §3
structure (smiles),measurement,setting,value
"CC(C)CC(=O)N[C@H]1CCOC1=O [IV-HSL, N-isovaleryl-L-homoserine lactone]",EC50,[1]; Escherichia coli,0.63 ± 0.1 nM
same,EC50,[1],0.6 nM
same,Mean normalised fluorescence,[1]; Log([ASHL]) -6.5,211248
same,Normalised fluorescence,[1]; Log([ASHL]) -6.5,231337 and 193994 and 208414
same,GFP,[1]; Log([ASHL]) -6.5,43152 and 44129 and 37797
same,Mean normalised fluorescence,[1]; Log([ASHL]) -7,191564
same,Normalised fluorescence,[1]; Log([ASHL]) -7,219307 and 167549 and 187835
same,GFP,[1]; Log([ASHL]) -7,41241 and 42932 and 36852
same,Mean normalised fluorescence,[1]; Log([ASHL]) -7.5,185367
same,Normalised fluorescence,[1]; Log([ASHL]) -7.5,205336 and 163229 and 187535
same,GFP,[1]; Log([ASHL]) -7.5,40980 and 43296 and 37356
same,Mean normalised fluorescence,[1]; Log([ASHL]) -8,184023
same,Normalised fluorescence,[1]; Log([ASHL]) -8,162110 and 183388 and 206570
same,GFP,[1]; Log([ASHL]) -8,43713 and 37962 and 41577
same,Mean normalised fluorescence,[1]; Log([ASHL]) -8.5,162300
same,Normalised fluorescence,[1]; Log([ASHL]) -8.5,147294 and 166971 and 172634
same,GFP,[1]; Log([ASHL]) -8.5,45027 and 40097 and 44703
same,Mean normalised fluorescence,[1]; Log([ASHL]) -9,128394
same,Normalised fluorescence,[1]; Log([ASHL]) -9,124444 and 123486 and 137251
same,GFP,[1]; Log([ASHL]) -9,38352 and 35601 and 39674
same,Mean normalised fluorescence,[1]; Log([ASHL]) -9.5,61565.3
same,Normalised fluorescence,[1]; Log([ASHL]) -9.5,61061.7 and 58710.4 and 64923.7
same,GFP,[1]; Log([ASHL]) -9.5,18880 and 16008 and 17944
same,Mean normalised fluorescence,[1]; Log([ASHL]) -10,14778.4
same,Normalised fluorescence,[1]; Log([ASHL]) -10,13513.8 and 15594 and 15227.4
same,GFP,[1]; Log([ASHL]) -10,4242 and 4261 and 4330
same,Mean normalised fluorescence,[1]; Log([ASHL]) -10.5,3859.05
same,Normalised fluorescence,[1]; Log([ASHL]) -10.5,3719.9 and 3832.44 and 4024.82
same,GFP,[1]; Log([ASHL]) -10.5,1247 and 1149 and 1212
same,Mean normalised fluorescence,[1]; Log([ASHL]) -11,2518.58
same,Normalised fluorescence,[1]; Log([ASHL]) -11,2198.08 and 2463.87 and 2893.8
same,GFP,[1]; Log([ASHL]) -11,781 and 756 and 889
same,Mean normalised fluorescence,[1]; Log([ASHL]) -11.5,1640.38
same,Normalised fluorescence,[1]; Log([ASHL]) -11.5,1511.18 and 1789.62 and 1620.34
same,GFP,[1]; Log([ASHL]) -11.5,546 and 584 and 517
same,sensitivity to IV-HSL relative to BjaRWT (B0033|ATG),[1]; more sensitive than BjaRWT (B0033|ATG),> 6 ×
same,fold activation of gene expression (activation range),[1]; with vs without IV-HSL,135 fold
same,EC50,"[2]; Escherichia coli, IV-HSL-activated gfp expression",3.93 ± 0.38 nM
same,hill coefficient,[2]; IV-HSL dose-response curve,1.38
same,GFP,[2]; Log([ASHL]) -6.5,47248 and 37500
same,Mean normalised fluorescence,[2]; Log([ASHL]) -6.5,200159
same,Normalised fluorescence,[2]; Log([ASHL]) -6.5,212521 and 200332 and 187623
same,Mean normalised fluorescence,"[2]; Log([ASHL]) -6.5, sheet 3e",184419
same,Mean normalised fluorescence,"[2]; Log([ASHL]) -6.5, sheet 3d",198983
same,Normalised fluorescence,"[2]; Log([ASHL]) -6.5, sheet 3d, Expt1-3",211719 and 182929
same,GFP,[2]; Log([ASHL]) -7,45353 and 37555
same,Mean normalised fluorescence,[2]; Log([ASHL]) -7,189629
same,Normalised fluorescence,[2]; Log([ASHL]) -7,198623 and 195600 and 174664
same,Mean normalised fluorescence,"[2]; Log([ASHL]) -7, sheet 3e",176709
same,Mean normalised fluorescence,"[2]; Log([ASHL]) -7, sheet 3d",188606
same,Normalised fluorescence,"[2]; Log([ASHL]) -7, sheet 3d, Expt1-3",197885 and 170457
same,GFP,[2]; Log([ASHL]) -7.5,45933 and 37587 and 40718
same,Mean normalised fluorescence,[2]; Log([ASHL]) -7.5,182276
same,Normalised fluorescence,[2]; Log([ASHL]) -7.5,179523 and 192948 and 174359
same,Mean normalised fluorescence,"[2]; Log([ASHL]) -7.5, sheet 3e",170191
same,Mean normalised fluorescence,"[2]; Log([ASHL]) -7.5, sheet 3d",181297
same,Normalised fluorescence,"[2]; Log([ASHL]) -7.5, sheet 3d, Expt1-3",178915 and 170205 and 194772
same,GFP,[2]; Log([ASHL]) -8,37611 and 40673
same,Mean normalised fluorescence,[2]; Log([ASHL]) -8,167362
same,Normalised fluorescence,[2]; Log([ASHL]) -8,183805 and 164832 and 153451
same,Mean normalised fluorescence,"[2]; Log([ASHL]) -8, sheet 3e",154256
same,Mean normalised fluorescence,"[2]; Log([ASHL]) -8, sheet 3d",166513
same,Normalised fluorescence,"[2]; Log([ASHL]) -8, sheet 3d, Expt1-3",161111 and 185459
same,GFP,[2]; Log([ASHL]) -8.5,37118 and 36825
same,Mean normalised fluorescence,[2]; Log([ASHL]) -8.5,127411
same,Normalised fluorescence,[2]; Log([ASHL]) -8.5,156949 and 139152 and 86132.6
same,Mean normalised fluorescence,"[2]; Log([ASHL]) -8.5, sheet 3e",106537
same,Mean normalised fluorescence,"[2]; Log([ASHL]) -8.5, sheet 3d",126734
same,Normalised fluorescence,"[2]; Log([ASHL]) -8.5, sheet 3d, Expt1-3",136219 and 158173
same,Mean normalised fluorescence,[2]; Log([ASHL]) -9,62693.3
same,Mean normalised fluorescence,"[2]; Log([ASHL]) -9, sheet 3e",40066
same,Mean normalised fluorescence,"[2]; Log([ASHL]) -9, sheet 3d",62287.6
same,Mean normalised fluorescence,[2]; Log([ASHL]) -9.5,17191.4
same,Mean normalised fluorescence,"[2]; Log([ASHL]) -9.5, sheet 3e",9895.56
same,Mean normalised fluorescence,"[2]; Log([ASHL]) -9.5, sheet 3d",17095.5
same,Mean normalised fluorescence,[2]; Log([ASHL]) -10,3897.48
same,Mean normalised fluorescence,"[2]; Log([ASHL]) -10, sheet 3e",2635.87
same,Mean normalised fluorescence,"[2]; Log([ASHL]) -10, sheet 3d",3848.29
same,GFP,[2]; Log([ASHL]) -10.5,559 and 459
same,Mean normalised fluorescence,[2]; Log([ASHL]) -10.5,1658.33
same,Normalised fluorescence,[2]; Log([ASHL]) -10.5,2009.19 and 1558.44 and 1407.36
same,Mean normalised fluorescence,"[2]; Log([ASHL]) -10.5, sheet 3e",1317.17
same,Mean normalised fluorescence,"[2]; Log([ASHL]) -10.5, sheet 3d",1623.48
same,Normalised fluorescence,"[2]; Log([ASHL]) -10.5, sheet 3d, Expt1-3",1531.14 and 2041.25
same,GFP,[2]; Log([ASHL]) -11,433 and 333 and 432
same,Mean normalised fluorescence,[2]; Log([ASHL]) -11,1322.92
same,Normalised fluorescence,[2]; Log([ASHL]) -11,1515.8 and 1009.39 and 1443.57
same,Mean normalised fluorescence,"[2]; Log([ASHL]) -11, sheet 3e",1095.36
same,Mean normalised fluorescence,"[2]; Log([ASHL]) -11, sheet 3d",1289.12
same,Normalised fluorescence,"[2]; Log([ASHL]) -11, sheet 3d, Expt1-3",995.025 and 1544.75 and 1327.6
same,GFP,[2]; Log([ASHL]) -11.5,418 and 424 and 326
same,Mean normalised fluorescence,[2]; Log([ASHL]) -11.5,1299.42
same,Normalised fluorescence,[2]; Log([ASHL]) -11.5,1462.99 and 1426.41 and 1008.84
same,Mean normalised fluorescence,"[2]; Log([ASHL]) -11.5, sheet 3e",1097.76
same,Mean normalised fluorescence,"[2]; Log([ASHL]) -11.5, sheet 3d",1265.1
same,Normalised fluorescence,"[2]; Log([ASHL]) -11.5, sheet 3d, Expt1-3",994.106 and 1309.43 and 1491.76
